Measurements as given in patent US20250179077A1, “QUINAZOLINE COMPOUNDS AND USES THEREOF AS INHIBITORS OF MUTANT KRAS PROTEINS” (AMGEN INC., priority 2022, published 2025).
Where two headings read alike, the source gives them in different places.

Experiments:
[1] = biological target: His-tagged KRAS G12D protein (Homo sapiens, UniProt P01116, G12D); test: KRAS G12D TR-FRET Assay; assay type: binding
Procedure: KRAS G12D TR-FRET Assay Compounds of interest were prepared in a dose-response titration in DMSO, and 80 nL were added via Labcyte Echo to each well of a 384-well plate (Perkin Elmer 6008280). The His-tagged KRAS G12D protein (Amgen) was diluted to 20 nM in Assay Buffer (20 mM HEPES, pH 7.4, 10 mM MgCl2, 50 mM NaCl, 0.1% BSA, 0.01% Tween-20, 10 μM GDP) and 2 uL was added to the appropriate wells of the 384-well plate. The plate was incubated for 30 minutes at room temperature. Biotinylated KRPep-2d substrate (Amgen) was diluted to 20 nM in Assay Buffer and 2 μL was added to all wells and incubated for 1 hour at room temperature. Detection Reagent (0.4 nM LANCE Eu-W1024 Anti-6×-His (Perkin Elmer AD0401), 5 nM streptavidin-d2 (Cisbio 610SADLA)) was prepared in Assay Buffer, then 4 μL was added to the plate and incubated for 1 hour at room temperature. Plates were read using PerkinElmer EnVision (ex: 320 nm, em1: 665 nm, em2: 615 nm) and em1/em2 data was used to generate curve fits using a 4-parameter logistic model to calculate IC50 values.

[2] = system: Phosphorylation of ERK1/2 in AsPC-1 cells; test: Phospho-ERK1/2 MSD Assay; assay type: cell-based
Procedure: AsPC-1 (ATCC® CRL-1682™) cells were cultured in RPMI 1640 Medium (ThermoFisher Scientific 11875093) containing 10% fetal bovine serum (ThermoFisher Scientific 16000044) and Ix penicillin-streptomycin-glutamine (ThermoFisher Scientific 10378016). Sixteen hours prior to compound treatment, AsPC-1 cells were seeded in 96-well cell culture plates at a density of 25,000 cells/well and incubated at 37° C., 5% CO2. A compound dose-response titration was diluted in growth media, added to appropriate wells of a cell culture plate, and then incubated at 37° C., 5% CO2 for 2 h. Following compound treatment, cells were washed with ice-cold Dulbecco's phosphate-buffered saline, no Ca^2+ or Mg^2+ (ThermoFisher Scientific 14190144), and then lysed in RIPA buffer (50 mM Tris-HCl pH 7.5, 1% Igepal, 0.5% sodium deoxycholate, 150 mM NaCl, and 0.5% sodium dodecyl sulfate) containing protease inhibitors (Roche 4693132001) and phosphatase inhibitors (Roche 4906837001). Phosphorylation of ERK1/2 in compound-treated lysates was assayed using Phospho-ERK1/2 Whole Cell Lysate kits (Meso Scale Discovery K151DWD) according to the manufacturer's protocol. Assay plates were read on a Meso Scale Discovery Sector Imager 6000, and data were analyzed using a 4-parameter logistic model to calculate IC50 values.

[3] = biological target: GDP-bound KRAS protein (aa 1-169), containing both G12D and C118A amino acid substitutions (Homo sapiens, UniProt P01116, C118A/G12D); test: KRAS G12D Coupled Nucleotide Exchange Assay; assay type: biochemical
Procedure: KRAS G12D Coupled Nucleotide Exchange Assay
Following compound pre-incubation, purified SOS protein (aa 564-1049) and GTP (Roche 10106399001) were added to the assay wells and incubated for an additional 30 min. […] The assay plates were then read on a PerkinElmer EnVision Multilabel Reader, using AlphaScreen® technology, and data were analyzed using a 4-parameter logistic model to calculate IC50 values.

[4] = Homo sapiens, ASPC1, 2 h, read-out: 2 h p-ERK (AsPC-1 cells), IC50, AsPC-1 cells, 2 h compound treatment

Chain of His-tagged KRAS G12D protein (P01116 1-188 isoform P01116-2 G12D): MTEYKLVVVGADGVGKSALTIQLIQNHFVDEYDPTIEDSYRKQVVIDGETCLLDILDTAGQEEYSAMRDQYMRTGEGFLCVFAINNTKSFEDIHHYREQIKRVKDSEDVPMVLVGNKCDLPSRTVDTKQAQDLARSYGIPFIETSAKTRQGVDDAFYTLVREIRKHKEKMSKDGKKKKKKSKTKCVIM
Chain of GDP-bound KRAS protein (aa 1-169), containing both G12D and C118A amino acid substitutions (P01116 1-169 isoform P01116-2 G12D/C118A): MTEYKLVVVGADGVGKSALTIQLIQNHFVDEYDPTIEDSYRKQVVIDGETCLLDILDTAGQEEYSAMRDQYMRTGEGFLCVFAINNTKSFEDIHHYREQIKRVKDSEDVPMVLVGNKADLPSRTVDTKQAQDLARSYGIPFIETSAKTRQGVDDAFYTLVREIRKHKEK

IC50 [1] | IC50 [2, 4] | IC50 [3] | IC50 ([2]; read-out: 2 h p-ERK (AsPC-1 cells), IC50, AsPC-1 cells, 2 h compound treatment) | SMILES
5 nM | 24 nM | 2 nM |  | C[C@@]1(O)COCCN(c2nc(OC[C@@]34CCCN3C[C@H](F)C4)nc3c(F)c(-c4cc(O)cc5ccc(F)c(Cl)c45)ccc23)C1 (single isomer, unassigned) [Example 82]
1 nM | 15 nM | 1 nM |  | CCc1c(F)ccc2cc(O)cc(-c3ccc4c(N5CCOCC(C)(O)C5)nc(OC[C@@]56CCCN5C[C@H](F)C6)nc4c3F)c12 (single isomer, unassigned) [Example 29]
9 nM | 123 nM | 8 nM |  | C[C@@H]1C[C@@H]1c1c(Cl)cc2[nH]ncc2c1-c1ccc2c(N3CCC[C@@](C)(O)C3)nc(OC[C@@]34CCCN3C[C@H](F)C4)nc2c1F (atropisomer, axis not shown; (aS)) [Example 110, (R)-1-((R)-7-(6-Chloro-5-((1S,2R)-2-methylcyclopropyl)-1H-indazol-4-yl)-8-fluoro-2-(((2R,7aS)-2-fluorotetrahydro-1H-pyrrolizin-7a(5H)-yl)methoxy)quinazolin-4-yl)-3-methylpiperidin-3-ol]
7 nM | 85 nM | 7 nM |  | CCc1c(F)ccc2cccc(-c3ccc4c(N5CCCC6(CNC(=O)O6)C5)nc(OC[C@@]56CCCN5C[C@H](F)C6)nc4c3F)c12 (stereo partly drawn) [Example 85, 7-(7-(8-Ethyl-7-fluoronaphthalen-1-yl)-8-fluoro-2-(((2R,7aS)-2-fluorotetrahydro-1H-pyrrolizin-7a(5H)-yl)methoxy)quinazolin-4-yl)-1-oxa-3,7-diazaspiro[4.5]decan-2-one]
17 nM | 281 nM | 2 nM |  | CCc1c(F)ccc2cc(N)cc(-c3c(F)cc4c(N5CCC[C@@](C)(O)C5)nc(OC[C@@]56CCCN5C[C@H](F)C6)nc4c3F)c12 (single isomer, unassigned) [Example 62]
7 nM | 28 nM | 5 nM |  | CCc1c(F)ccc2cc(O)cc(-c3c(F)cc4c(N5CCCC6(CCC(=O)O6)C5)nc(OC[C@@]56CCCN5C[C@H](F)C6)nc4c3F)c12 (stereo partly drawn) [Example 92, 7-(7-(8-Ethyl-7-fluoro-3-hydroxynaphthalen-1-yl)-6,8-difluoro-2-(((2R,7aS)-2-fluorotetrahydro-1H-pyrrolizin-7a(5H)-yl)methoxy)quinazolin-4-yl)-1-oxa-7-azaspiro[4.5]decan-2-one]
19 nM | 185 nM | 4 nM |  | C#Cc1c(F)ccc2cc(N)cc(-c3c(F)cc4c(N5CCOCC(C)(O)C5)nc(OC[C@@]56CCCN5C[C@H](F)C6)nc4c3F)c12 (stereo partly drawn) [Example 70, 4-(7-(3-Amino-8-ethynyl-7-fluoronaphthalen-1-yl)-6,8-difluoro-2-(((2R,7aS)-2-fluorotetrahydro-1H-pyrrolizin-7a(5H)-yl)methoxy)quinazolin-4-yl)-6-methyl-1,4-oxazepan-6-ol]
4 nM | 29 nM | 2 nM |  | CCc1c(F)ccc2cc(N)cc(-c3c(F)cc4c(N5CCC[C@]6(CNC(=O)O6)C5)nc(OC[C@@]56CCCN5C[C@H](F)C6)nc4c3F)c12 (single isomer, unassigned) [Example 97]
3 nM | 41 nM | 3 nM |  | C/C=C\c1c(Cl)cc2[nH]ncc2c1-c1c(F)cc2c(N3CCC[C@]4(CCO4)C3)nc(OC[C@@]34CCCN3C[C@H](F)C4)nc2c1F (single isomer, unassigned) [Example 113]
3 nM | 12 nM | 3 nM |  | CCc1cccc2cc(O)cc(-c3ccc4c(N5CCOCC(C)(O)C5)nc(OC[C@@]56CCCN5C[C@H](F)C6)nc4c3F)c12 (single isomer, unassigned) [Example 30]
6 nM | 87 nM | 5 nM |  | C/C=C\c1c(C)cc2[nH]ncc2c1-c1c(F)cc2c(N3CCC[C@]4(CCO4)C3)nc(OC[C@@]34CCCN3C[C@H](F)C4)nc2c1F (single isomer, unassigned) [Example 114]
21 nM |  | 8 nM | 39 nM | CCc1c(F)ccc2cc(O)cc(-c3c(F)cc4c(N5CCCC6(CNC(=O)O6)C5)nc(OC[C@@]56CCCN5C[C@H](F)C6)nc4c3F)c12 (single isomer, unassigned) [Example 59]
2 nM | 132 nM | 2 nM |  | C#Cc1cccc2cc(O)cc(-c3ccc4c(N5CC6CC(O)C(C6)C5)nc(OC[C@@]56CCCN5C[C@H](F)C6)nc4c3F)c12 (single isomer, unassigned) [Example 16]
5 nM | 72 nM | 2 nM |  | O=C1NC[C@]2(CCCN(c3nc(OC[C@@]45CCCN4C[C@H](F)C5)nc4c(F)c(-c5cc(O)cc(Cl)c5C5CC5)ccc34)C2)O1 [Example 84, (S)-7-(7-(3-Chloro-2-cyclopropyl-5-hydroxyphenyl)-8-fluoro-2-(((2R,7aS)-2-fluorotetrahydro-1H-pyrrolizin-7a(5H)-yl)methoxy)quinazolin-4-yl)-1-oxa-3,7-diazaspiro[4.5]decan-2-one]
9 nM | 33 nM | 5 nM |  | Oc1cc(-c2c(F)cc3c(N4CCC[C@]5(CCO5)C4)nc(OC[C@@]45CCCN4C[C@H](F)C5)nc3c2F)c2c(F)c(F)ccc2c1 [Example 79, 4-(6,8-Difluoro-2-(((2R,7aS)-2-fluorotetrahydro-1H-pyrrolizin-7a(5H)-yl)methoxy)-4-((S)-1-oxa-6-azaspiro[3.5]nonan-6-yl)quinazolin-7-yl)-5,6-difluoronaphthalen-2-ol]
3 nM | 251 nM | 7 nM |  | CCc1c(F)ccc2cc(O)cc(-c3ccc4c(N5CCCC6(CNC(=O)C6)C5)nc(OC[C@@]56CCCN5C[C@H](F)C6)nc4c3F)c12 (stereo partly drawn) [Example 53, 7-(7-(8-Ethyl-7-fluoro-3-hydroxynaphthalen-1-yl)-8-fluoro-2-(((2R,7aS)-2-fluorotetrahydro-1H-pyrrolizin-7a(5H)-yl)methoxy)quinazolin-4-yl)-2,7-diazaspiro[4.5]decan-3-one]
5 nM | 123 nM | 4 nM |  | C[C@@]1(O)CCCN(c2nc(OC[C@@]34CCCN3C[C@H](F)C4)nc3c(F)c(-c4cc(O)cc(Cl)c4C4CC4)c(F)cc23)C1 [Example 6, (3R)-1-(7-(3-Chloro-2-cyclopropyl-5-hydroxyphenyl)-6,8-difluoro-2-(((2R,7aS)-2-fluorotetrahydro-1H-pyrrolizin-7a(5H)-yl)methoxy)quinazolin-4-yl)-3-methylpiperidin-3-ol]
11 nM | 260 nM | 6 nM |  | C#Cc1c(F)ccc2cc(N)cc(-c3ccc4c(N5CCC[C@@](C)(O)C5)nc(OC[C@@]56CCCN5C[C@H](F)C6)nc4c3F)c12 [Example 65, (R)-1-(7-(3-Amino-8-ethynyl-7-fluoronaphthalen-1-yl)-8-fluoro-2-(((2R,7aS)-2-fluorotetrahydro-1H-pyrrolizin-7a(5H)-yl)methoxy)quinazolin-4-yl)-3-methylpiperidin-3-ol]
12 nM | 525 nM | 7 nM |  | CCc1cccc2cc(O)cc(-c3c(C#N)cc4c(N5CCCOCC5)nc(OC[C@@]56CCCN5C[C@H](F)C6)nc4c3F)c12 [Example 45, 7-(8-Ethyl-3-hydroxynaphthalen-1-yl)-8-fluoro-2-(((2R,7aS)-2-fluorotetrahydro-1H-pyrrolizin-7a(5H)-yl)methoxy)-4-(1,4-oxazepan-4-yl)quinazoline-6-carbonitrile]
4 nM | 36 nM | 3 nM |  | C/C=C\c1c(C)cc2[nH]ncc2c1-c1c(F)cc2c(N3CCC[C@](O)(CF)C3)nc(OC[C@@]34CCCN3C[C@H](F)C4)nc2c1F (single isomer, unassigned) [Example 102]
